This is an account of results in DBAASP.

In brackets after ≈: the same amount, converted by molar mass.

Some test systems named below: Escherichia coli E416-7; Escherichia coli C25; Escherichia coli BW25113; Escherichia coli J2210; Escherichia coli JJ2489; Escherichia coli JW0013; Escherichia coli MC1041.
Experiment in all cases: ≥ marks a high value that may be exact or a test limit, other limits are often not marked, values filed in µg/mL are converted to µM
Assay [1] concerns Enterococcus faecium V286-17.
Assay [2] concerns Escherichia coli ATCC 25922.
Assay [3] relates to Klebsiella pneumoniae ATCC 13883.
For assay [4], the system named is Klebsiella pneumoniae E406-17.
For assay [5], the system named is Pseudomonas aeruginosa E411-17.
In assay [6] the test system is Pseudomonas aeruginosa PAO1.
Assay [7] concerns Staphylococcus aureus JE2.
Assay [8] deals with Staphylococcus aureus M838-17.
The test system of assay [9] is Bacillus cereus ATCC 11778.
The test system of assay [10] is Bacillus thuringiensis ATCC 10792.
The test system of assay [11] is Enterococcus faecium CCT 5079.
The test system of assay [12] is Enterococcus hirae ATCC 10541.
For assay [13], the system named is Escherichia coli ATCC 11775.
Assay [14] concerns Escherichia coli CCT 1457.
Assay [15] has as its system Micrococcus luteus ATCC 4698.
Assay [16] deals with Pseudomonas aeruginosa ATCC 13388.
The subject of assay [17] is Pseudomonas aeruginosa ATCC 15422.
The test system of assay [18] is Salmonella enterica subsp. enterica serovar Choleraesuis ATCC 10708.
For assay [19], the system named is Salmonella enterica subsp. enterica serovar Typhimurium ATCC 14028.
For assay [20], the system named is Staphylococcus aureus ATCC 25923.
The test system of assay [21] is Staphylococcus aureus CCT 2580.
Assay [22] deals with Staphylococcus aureus CCT 6538.
Assay [23] deals with Staphylococcus epidermidis ATCC 12228.
In assay [24] the test system is Streptococcus mutans AU159.
The test system of assay [25] is Streptococcus pneumoniae ATCC 11733.
The test system of assay [26] is Enterococcus faecium ATCC BAA-2316.
In assay [27] the test system is Escherichia coli ATCC 35218.
The subject of assay [28] is Pseudomonas aeruginosa ATCC BAA-2114.
For assay [29], the system named is Staphylococcus aureus ATCC 29213.
The subject of assay [30] is Staphylococcus aureus ATCC 33591.
The subject of assay [31] is Staphylococcus aureus ATCC 43300.
The test system of assay [32] is Staphylococcus aureus ATCC BAA-41.
Assay [33] concerns Escherichia coli BW25113 ΔsbmA.
Assay [34] deals with Escherichia coli JW0368 ΔsbmA.
Assay [35] deals with Escherichia coli JW2778 ΔygdD.
Assay [36] has as its system Salmonella enterica subsp. enterica serovar Enteritidis MH91989.
The test system of assay [37] is Salmonella typhimurium SL1344.

Turning to `CC(C)C[C@H](NC(=O)[C@H](CC(C)C)NC(=O)[C@H](CCCCN)NC(=O)[C@H](CC(C)C)NC(=O)CNC(=O)[C@H](CC(C)C)NC(=O)[C@H](CO)NC(=O)[C@H](CC(C)C)NC(=O)[C@H](CC(C)C)NC(=O)[C@H](CC(C)C)NC(=O)[C@H](CO)NC(=O)[C@H](CC(C)C)NC(=O)CN)C(N)=O` [GLSLLLSLGLKLL], the MIC in assay [1] was 4.4 µM (≈ 5.89 µg/mL); in assay [2], greater than 25 µM; in the assay on Escherichia coli E416-7, no less than 50 µM; in assay [3], 25 µM (≈ 33.5 µg/mL); in assay [4] it was no less than 50 µM; in assay [5], no less than 50 µM. In addition, the MIC was greater than 25 µM in assay [6], 1.56 µM (≈ 2.09 µg/mL) in [7] and 3.1 µM (≈ 4.15 µg/mL) in assay [8].

`CC[C@H](C)[C@H](N)C(=O)N[C@@H](CC(N)=O)C(=O)N[C@@H](Cc1c[nH]c2ccccc12)C(=O)N[C@@H](CC(C)C)C(=O)N[C@@H](C)C(=O)N[C@H](C(=O)N[C@@H](C)C(=O)N[C@@H](C)C(=O)N[C@@H](CCCCN)C(=O)N[C@H](C(=O)N[C@@H](C)C(=O)NCC(=O)N[C@@H](CCSC)C(=O)N[C@@H](CC(C)C)C(N)=O)C(C)C)[C@@H](C)CC` [INWLAIAAKVAGML]: the MIC in [9] was no less than 85 µM; in assay [10], no less than 85 µM; in assay [11], no less than 170 µM; in assay [12], no less than 170 µM; in assay [13], no less than 340 µM; in assay [2] it was 170 µM (≈ 250 µg/mL). For the same compound, the MIC was no less than 170 µM in assay [14]; 10.6 µM (≈ 15.6 µg/mL) in assay [15]; no less than 340 µM in assay [16]; no less than 340 µM in [17]; no less than 340 µM in assay [18]; 340 µM (≈ 500 µg/mL) in [19]. For the same compound, the MIC in assay [20] was 10.9 µM (≈ 16 µg/mL); in [21], 2.72 µM (≈ 4 µg/mL); in assay [22] it was 10.9 µM (≈ 16 µg/mL); in [23], 10.9 µM (≈ 16 µg/mL); in assay [24], no less than 170 µM; in assay [25] it was 0.68 µM (≈ 0.999 µg/mL).

On to `CC[C@H](C)[C@H](NC(=O)[C@H](CCCN=C(N)N)NC(=O)[C@H](CCC(N)=O)NC(=O)[C@@H](NC(=O)[C@@H](NC(=O)[C@H](CCCN=C(N)N)NC(=O)[C@H](CCCCN)NC(=O)[C@H](Cc1ccccc1)NC(=O)[C@@H](NC(=O)[C@@H]1CCCN1C(=O)[C@H](CO)NC(=O)[C@H](CC(C)C)NC(=O)[C@H](CCCCN)NC(=O)[C@H](CCCCN)NC(=O)[C@H](Cc1ccccc1)NC(=O)[C@H](CC(C)C)NC(=O)[C@H](CCCCN)NC(=O)[C@H](CCCCN)NC(=O)[C@H](Cc1ccccc1)NC(=O)[C@@H](N)CCCCN)C(C)C)[C@@H](C)CC)C(C)C)C(=O)N[C@@H](CCCCN)C(=O)N[C@@H](CC(=O)O)C(=O)N[C@@H](Cc1ccccc1)C(=O)N[C@@H](CC(C)C)C(=O)N[C@@H](CCCN=C(N)N)C(=O)O` [KFKKLFKKLSPVFKRIVQRIKDFLR], for which the MIC in [26] was found to be 20 µM (≈ 63.3 µg/mL); in [2], 20 µM (≈ 63.3 µg/mL); in assay [27], 20 µM (≈ 63.3 µg/mL); in assay [28], 10 µM (≈ 31.6 µg/mL); in assay [29] it was 20 µM (≈ 63.3 µg/mL); in [30] it was 20 µM (≈ 63.3 µg/mL). For the same compound, the MIC in [31], in [32] and in [23] was 20 µM (≈ 63.3 µg/mL) throughout.

Take `CC[C@H](C)[C@H](NC(=O)CNC(=O)[C@H](CCCN=C(N)N)NC(=O)[C@H](Cc1ccc(O)cc1)NC(=O)[C@@H](NC(=O)[C@H](CCCN=C(N)N)NC(=O)[C@H](Cc1ccccc1)NC(=O)[C@H](Cc1c[nH]c2ccccc12)NC(=O)[C@@H](N)CCCCN)C(C)C)C(=O)N[C@@H](Cc1ccc(O)cc1)C(=O)N[C@@H](CCCN=C(N)N)C(N)=O` [KWFRVYRGIYR]: the MIC against Escherichia coli C25 worked out at 8.5 µM (≈ 13.1 µg/mL); in assay [20], 17 µM (≈ 26.2 µg/mL).

For the compound `CC[C@H](C)[C@H](NC(=O)[C@@H]1CCCN1C(=O)[C@@H]1CCCN1C(=O)[C@H](CCCN=C(N)N)NC(=O)[C@H](Cc1ccccc1)NC(=O)[C@@H](N)CCCN=C(N)N)C(=O)N[C@@H](CCCN=C(N)N)C(=O)N[C@@H](CCCN=C(N)N)C(=O)N1CCC[C@H]1C(=O)N1CCC[C@H]1C(=O)N[C@H](C(=O)N[C@@H](CCCN=C(N)N)C(=O)N1CCC[C@H]1C(=O)N1CCC[C@H]1C(=O)N[C@@H](Cc1ccccc1)C(=O)N[C@@H](CCCN=C(N)N)C(=O)N1CCC[C@H]1C(=O)N1CCC[C@H]1C(=O)N[C@@H](Cc1ccccc1)C(=O)N[C@@H](CCCN=C(N)N)C(=O)N1CCC[C@H]1C(=O)N1CCC[C@H]1C(=O)N[C@H](C(=O)N[C@@H](CCCN=C(N)N)C(=O)N1CCC[C@H]1C(=O)O)C(C)C)[C@@H](C)CC` [RFRPPIRRPPIRPPFRPPFRPPVRP], the MIC in assay [33] was 8 µM (≈ 24.8 µg/mL); in the assay with Escherichia coli BW25113, 1 µM (≈ 3.1 µg/mL).

Consider `CC[C@H](C)[C@H](NC(=O)[C@H](CCCN=C(N)N)NC(=O)[C@@H](N)CCCN=C(N)N)C(=O)N[C@@H](CCCCN)C(=O)N[C@@H](CCCCN)C(=O)N[C@@H](CCCN=C(N)N)C(=O)N1CCC[C@H]1C(=O)N1CCC[C@H]1C(=O)N[C@@H](CCCN=C(N)N)C(=O)N[C@@H](CC(C)C)C(=O)N1CCC[C@H]1C(=O)N[C@@H](CCCN=C(N)N)C(=O)N1CCC[C@H]1C(=O)N[C@@H](CCCN=C(N)N)C(=O)N1CCC[C@H]1C(=O)N[C@@H](CCCCN)C(=O)O` [RRIKKRPPRLPRPRPK], for which the minimum inhibitory concentration (MIC) was 0.078 µM (≈ 0.16 µg/mL) in the assay with Escherichia coli BW25113; 0.167 µM (≈ 0.343 µg/mL) in the assay with Escherichia coli J2210; 0.12 µM (≈ 0.246 µg/mL) against Escherichia coli JJ2489; 0.06 µM (≈ 0.123 µg/mL) with Escherichia coli JW0013; 0.06 µM (≈ 0.123 µg/mL) in [34]; 0.12 µM (≈ 0.246 µg/mL) in [35]. In addition, the MIC is 0.06 µM (≈ 0.123 µg/mL) with Escherichia coli MC1041, 0.167 µM (≈ 0.343 µg/mL) in assay [36] and 0.12 µM (≈ 0.246 µg/mL) in [37].

In general, MIC refers to the least concentration at which growth counts as inhibited. A lower MIC goes with greater potency.
